From patent US12297349B2, “Transparent resin composition and transparent resin molded article” (Sony Group Corporation, priority 2016, dated 2025)

Assay: Dissolved amount (solubility) in pure water
Details: stirring for 30 minutes, filtering with 0.5 μm filter, insoluble matter measured
Method: The content of the water-insoluble organic sulfonic acid and/or the metal salt thereof is 0.01 to 3.0 pts·mass to 100 pts·mass of the aromatic polycarbonate resin. […] The dissolved amount per 100 g of pure water can be calculated by mixing 3 g of sample with 100 g of pure water, stirring for 30 minutes, and then filtering it with 0.5 μm filter to measure the insoluble matter.

Compound | A dissolved amount (solubility)
O=S(=O)([O-])C(F)(F)C(F)(F)C(F)(F)C(F)(F)F.[K+] [b-2, potassium perfluorobutanesulfonate] | 4.6 g/100 g of pure water
Cc1ccc(S(=O)(=O)[O-])cc1.[Na+] [b-3, sodium paratoluenesulfonic acid] | 24.0 g/100 g of pure water
